Here are results for one compound from patent US12447161B2, “Topical pharmaceutical formulation” (RaDes GmbH, priority 2021, dated 2025).

The nature of data set [1]: Solubility of mometasone furoate in solvents of prior art formulations. The data set is classed as physicochemical. Here is the method: Dissolution studies were performed with mometasone furoate in both the oil phase and the aqueous phase of the DIPA-containing lotion formulations of Examples 3 and 9 of DE102006034883 to determine the solubility of mometasone furoate in mg/ml in said formulations. For this purpose, first, the liquid excipients of the oil phase and the aqueous phase were mixed in the correct relative amounts to form the respective solvent systems; the low amounts of solid excipients contained in the formulations were not considered. Based on the weight ratio between oil and water phase, the theoretical solubility of mometasone furoate in the complete formulation can then be estimated using the formula: [proportion of oil phase·solubility in oil phase]+[proportion of aqueous phase·solubility in aqueous phase] For instance, for Ex. 3 of DE102006034883, the oil phase (paraffinum liquidum) makes up about 20 wt. %, the remainder is the aqueous phase. […] For instance, for Ex. 9 of DE102006034883, the oil phase makes up 27.88 wt. %, the remainder is the aqueous phase.

The nature of data set [2]: Re-precipitation of mometasone furoate in solvent systems of Ex. 10 and 11 of DE102006034883. The data set is classed as physicochemical. The note with it: then 40.56 parts of water. Here is the method:
Similar to Example 7 above, dissolution behaviour of mometasone furoate was also tested for the DIPA-containing prior art cream formulations described in examples 10 and 11 of DE102006034883. For this purpose, mometasone furoate was dissolved in solvent systems based on Ex. 10 and 11 as follows:
Ex. 10: 0.1 parts mometasone furoate were dissolved in 1 part phenoxy ethanol and 10 parts hexylene glycol, resulting in a clear solution.
Ex. 11: 0.1 parts mometasone furoate were dissolved in 1 part phenoxy ethanol and 10 parts diethylene glycol monoethyl ether (Transcutol®), resulting in a clear solution.

For data set [3] the following is noted: cited from earlier work.

Entries after “also recorded” stand apart in the source; their conditions may differ.

For `C[C@@H]1C[C@H]2[C@@H]3CCC4=CC(=O)C=C[C@]4(C)[C@@]3(Cl)[C@@H](O)C[C@]2(C)[C@@]1(OC(=O)c1ccco1)C(=O)CCl` [mometasone furoate, 9α,21-dichloro-11β,17α-dihydroxy-16α-methylpregna-1,4-diene-3,20-dione 17-(2-furoate)], in data set [1], the “solubility in liquid paraffin” value is listed as “about 0.05 mg/mL”. Moreover, the “Solubility of mometasone furoate” value in data set [1] (Aqueous phase Ex. 3 of DE102006034883 (phenoxy ethanol, polysorbate 40, Transcutol, water)) came out at 0.15 mg/mL; in data set [1] (Aqueous phase Ex. 9 of DE102006034883 (phenoxy ethanol, Steareth 21, hexylene glycol, water)), 0.09 mg/mL; in data set [1] (Oil phase Ex. 3 of DE102006034883 (liquid paraffin)), 0.05 mg/mL; in data set [1] (Oil phase Ex. 9 of DE102006034883 (MCT, DIPA, liquid paraffin, Capryol 90)), 0.83 mg/mL. The overall theoretical solubility result in data set [1] (complete formulation Ex. 3 of DE102006034883) is given as “about 0.13 mg/ml”; in data set [1] (complete formulation Ex. 9 of DE102006034883) it was “about 0.293 mg/ml”. Besides, the “behaviour on addition of aqueous phase” value is “precipitation of mometasone furoate; also recorded: precipitated” in data set [2] (Ex. 10 solvent system: phenoxy ethanol, hexylene glycol) and “precipitation of mometasone furoate; also recorded: precipitated” in data set [2] (Ex. 11 solvent system: phenoxy ethanol, Transcutol®). In addition, the “log P” value in data set [3] was “about 4”. Also, in data set [3], the water solubility entry is reported as “about 0.95 μg/mL”.
